PMC6150242, “Design, Synthesis and Anticancer Evaluation of Fangchinoline Derivatives” (Molecules : A Journal of Synthetic Chemistry and Natural …, 2017)
Read-outs that look alike come from different tables or passages of the source.

Legend:
[1] = test system: human prostate cancer PC3 cell line; assay: MTT in vitro cytotoxicity assay, PC3; assay type: cell-based; settings: read-out: IC50 (µM) PC3
Protocol: (§1) As summarized in Table 1, five cancer cell lines, including MDA-MB-231, PC3, WM9, HEL and K562 cell lines, were induced for testing the anti-cancer activities of those derivatives. The first line anti-cancer drug, vincristine, was treated as positive control. All the test compounds were dissolved in DMSO. The preliminary structure-activity relationship of all compounds against the 5 cancer cell lines was also investigated.
(§2) Human erythroleukemic cell lines HEL and K562, human breast cell lines MDA-MB-231, human prostate cell lines PC3 and human melanoma cell lines WM9 were cultured in RPMI (HEL and K562) or DMEM (MDA-MB-231, PC3, WM9) medium (high glucose) supplemented with 5% FBS (HyClone, GE Healthcare, Parramatta, Australia) and 1% ampicillin/streptomycin.
(§3) Cells were cultured in 96-well plates at densities of 1 × 10^5/well. The plates were pre-incubated at 37 °C for 24 h to allow adaptation of cells prior to the addition of the test compounds. Then, compounds were added to cells in triplicate in several doses, and incubated for an additional 2 days. The 50% inhibitory concentrations (IC50) were measured for fangchinoline derivatives using MTT (diphenyltetrazolium bromide) assay.

[2] = test system: human melanoma WM9 cell line; assay: MTT in vitro cytotoxicity assay, WM9; assay type: cell-based; settings: for IC50: Homo sapiens, read-out: IC50 (µM) WM9
Protocol: as §1, §2, §3

[3] = test system: human breast cancer MDA-MB-231 cell line; assay: MTT in vitro cytotoxicity assay, MDA-MB-231; assay type: cell-based; settings: read-out: IC50 (µM) MDA-MB-231
Protocol: as §1, §2, §3

[4] = test system: human leukaemia HEL cell line; assay: MTT in vitro cytotoxicity assay, HEL; assay type: cell-based; settings: read-out: IC50 (µM) HEL
Protocol: as §1, §2, §3

[5] = test system: human leukaemia K562 cell line; assay: MTT in vitro cytotoxicity assay, K562; assay type: cell-based; settings: read-out: IC50 (µM) K562
Protocol: as §1, §2, §3

[6] = Toxicity on normal human liver cell line; assay type: cell-based; settings: HL7702 normal liver cells; normal human liver cell line HL7702; read-out: IC50 against HL7702 cell growth
Protocol: (§4) 3 fangchinoline derivatives were also tested for their toxicities on normal human liver cell line HL7702.
as §3

[7] = test system: normal human liver cell line HL7702; assay: Toxicity on normal human liver cell line; assay type: cell-based; settings: HL7702 versus cancer cell lines
Protocol: as §4, §3

PARP = assay: Western blot of apoptosis indicators, PARP; assay type: cell-based, human; settings: WM9 cells, 2.5 µM, 24 h
Protocol: (§5) Western blot analysis was induced to elucidate the effect of compound 4g on protein levels to further expatiate how compound 4g induces apoptosis in WM9 cells (Figure 3). The Bcl-xl, Bcl-2 and Survivin display repressor activities in cell death.
(§6) The total protein was collected from WM9 cells using RIPA lysis buffer, and separated on 10% SDS Page, as described. The protein was then transferred to polyvinylidene fluoride (PVDF, 0.2 µm) membrane, and blocked by 5% BSA solution for 2 h at room temperature. The membrane was then incubated with specific primary antibodies overnight at 4 °C, followed by incubation with corresponding HRP-conjugated secondary antibodies for 2 h at room temperature. Expression of particular proteins was measured by applying ECL select substrate (Li-Cor, Lincoln, NE, USA). Polyclonal rabbit antibody for Bcl-2 was obtained from Abcam (Abcam, Cambridge, UK); Bcl-xl, Survivin, Casepase-3 and PARP antibodies from Cell Signalling Technology (CST, Danvers, MA, USA) and GAPDH from Goodhere Biotechnology (Hangzhou, Zhejiang, China).
(§7) Figure 3 Fangchinoline derivative 4g affects the protein levels of the apoptotic genes in WM9 cell line. […] WM9 cells were treated with 2.5 μM 4g for 24 h.

Bcl-xl = assay: Western blot of apoptosis indicators, Bcl-xl; assay type: cell-based, human; settings: WM9 cells, 2.5 µM, 24 h
Protocol: as §5, §6, §7

WM9 cells = assay: Annexin V-FITC/PI flow cytometry apoptosis assay; assay type: cell-based, human; settings: 2.5 µM, 24 h
Protocol: The Annexin V-FITC-A/PI apoptosis detection kit was induced to test the further role of compound 4g in inhibiting WM9 cell death (Figure 2). Before undergoing the flow cytometry, the WM9 cells were treated with 0 and 2.5 µM compound 4g for 24 h, and then Annexin V-FITC and PI were put into use.
For apoptosis analysis, WM9 cells were incubated with compounds or DMSO as a vehicle control for 24 h. Cells were then washed with cold PBS, stained with Annexin V-FITC and Propidium Iodide (PI) using apoptosis detection Kit (BD Biosciences, Bergen, NJ, USA).
Figure 2 Compound 4g induced apoptosis in WM9 cells. WM9 cells were stained with Annexin V-FITC and PI by incubating at room temperature for 15 min after treated cells with 2.5 µM 4g for 24 h. Finally, apoptosis analysis was carried out by flow cytometry. TEXT PRINTED IN THE PICTURE: Y-37: WM9 24h: Q4-UL 1.2% (2.5 μM); WM9 24h: Q4-UR 8.8% (2.5 μM); WM9 24h: Q4-LL 74.2% (2.5 μM); WM9 24h: Q4-LR 15.8% (2.5 μM) DOUBTS OF THE COPYIST ABOUT THIS PICTURE: Y-37, Q4-UR: 8.8% or 6.8%; the first digit is partly hidden by plotted points / The Control plot also prints quadrant percentages (Q4-UL 0.7%, Q4-UR 0.0%, Q4-LL 98.9%, Q4-LR 0.3%). They are not listed because Control is not a substance.

Survivin = assay: Western blot of apoptosis indicators, Survivin; assay type: cell-based, human; settings: WM9 cells, 2.5 µM, 24 h
Protocol: as §5, §6, §7

Bcl-2 = assay: Western blot of apoptosis indicators, Bcl-2; assay type: cell-based, human; settings: WM9 cells, 2.5 µM, 24 h
Protocol: as §5, §6, §7

Caspase-3 = assay: Western blot of apoptosis indicators, Caspase-3; assay type: cell-based, human; settings: WM9 cells, 2.5 µM, 24 h
Protocol: as §5, §6, §7

[8] = test system: human hepatocellular carcinoma cell line PLC/PRF/5; set-up: method as in PMID 21418191; settings: autophagy induction at relatively low concentrations; cited from earlier work
[9] = test system: human hepatocellular carcinoma cell line HepG2; set-up: method as in PMID 21418191; settings: autophagy induction at relatively low concentrations; cited from earlier work
[10] = PC-3, MTT assay after 48 h of treatment, averaged from at least 3 independent experiments, variation ±10%
[11] = WM9, MTT assay after 48 h of treatment, averaged from at least 3 independent experiments, variation ±10%
[12] = MDA-MB-231, MTT assay after 48 h of treatment, averaged from at least 3 independent experiments, variation ±10%
[13] = MTT assay after 48 h of treatment, averaged from at least 3 independent experiments, variation ±10%
[14] = K562, MTT assay after 48 h of treatment, averaged from at least 3 independent experiments, variation ±10%

Compound | IC50 [1, 10] [µM] | IC50 [2, 11] [µM] | IC50 [3, 12] [µM] | IC50 [4, 13] [µM] | IC50 [5, 14] [µM] | also measured
COc1ccc2cc1Oc1ccc(cc1)C[C@H]1c3cc(c(OC)cc3CCN1C)Oc1c(OCc3ccccc3)c(OC)cc3c1[C@H](C2)N(C)CC3 [Compound 1a, 7-O-Benzyl-fangchinoline] | 3.65 | 3.44 | 5.13 | 4.42 | 4.75 | 
COc1ccc2cc1Oc1ccc(cc1)C[C@H]1c3cc(c(OC)cc3CCN1C)Oc1c(OCC=C(C)C)c(OC)cc3c1[C@H](C2)N(C)CC3 [Compound 1b, 7-O-(3-Methylbut-1-ene)-fangchinoline] | 7.22 | 5.56 | 4.44 | 4.01 | 6.6 | 
C=CCOc1c(OC)cc2c3c1Oc1cc4c(cc1OC)CCN(C)[C@H]4Cc1ccc(cc1)Oc1cc(ccc1OC)C[C@@H]3N(C)CC2 [Compound 1c, 7-O-(Prop-1-ene)-fangchinoline] | 4.75 | 3.05 | 5.04 | 4.72 | 6.78 | 
COc1cc([N+](=O)[O-])c2cc1Oc1ccc(cc1)C[C@H]1c3cc(c(OC)cc3CCN1C)Oc1c(OCc3ccccc3)c(OC)cc3c1[C@H](C2)N(C)CC3 [Compound 2a, 7-Benzyl-14-nitro-fangchinoline] | 3.69 | 3.04 | 8.6 | 8.96 | 8.33 | IC50 at 2 days [6]: 5.6 µM
COc1ccc2cc1Oc1ccc(cc1)C[C@H]1c3cc(c(OC)cc3CCN1C)Oc1c(OC(C)=O)c(OC)cc3c1[C@H](C2)N(C)CC3 [Compound 3a, 7-O-Acetyl-fangchinoline] | 3.01 | 2.65 | 6.67 | 2.75 | 6.99 | 
COc1ccc2cc1Oc1ccc(cc1)C[C@H]1c3cc(c(OC)cc3CCN1C)Oc1c(OS(=O)(=O)c3ccc(C)cc3)c(OC)cc3c1[C@H](C2)N(C)CC3 [Compound 3b, 7-O-Tosyl-fangchinoline] | 3.59 | 3.95 | 4.61 | 2.95 | 3.85 | 
COc1ccc2cc1Oc1ccc(cc1)C[C@H]1c3cc(c(OC)cc3CCN1C)Oc1c(OS(=O)(=O)c3ccccc3[N+](=O)[O-])c(OC)cc3c1[C@H](C2)N(C)CC3 [Compound 3c, 7-O-(o-Nirtobenzessulfonyl)-fangchinoline] | 4.76 | 3.58 | 8.7 | 6.82 | 4.06 | 
COc1ccc2cc1Oc1ccc(cc1)C[C@H]1c3cc(c(OC)cc3CCN1C)Oc1c(OC(=O)c3ccco3)c(OC)cc3c1[C@H](C2)N(C)CC3 [Compound 3g, 7-O-(Furan-m-formyl)-fangchinoline] | 4.33 | 3.13 | 6.02 | 4.04 | 6.39 | fold lower toxicity on HL7702 than inhibition on cancer cell lines [7]: ~3 fold; IC50 at 2 days [6]: 17.3 µM
COc1ccc2cc1Oc1ccc(cc1)C[C@H]1c3cc(c(OC)cc3CCN1C)Oc1c(OC(=O)c3ccccc3)c(OC)cc3c1[C@H](C2)N(C)CC3 [Compound 3i, 7-O-Benzoyl-fangchinoline] | 4.57 | 2.73 | 3.46 | 2.04 | 2.86 | 
COc1cc(Br)c2cc1Oc1ccc(cc1)C[C@H]1c3cc(c(OC)cc3CCN1C)Oc1c(OC(=O)c3ccccc3)c(OC)c(Br)c3c1[C@H](C2)N(C)CC3 [Compound 4a, 7-O-Benzoyl-5,14-dibromo-fangchinoline] | 4.22 | 2.51 | 4.12 | 2.65 | 2.45 | 
COc1cc(Cl)c2cc1Oc1ccc(cc1)C[C@H]1c3cc(c(OC)cc3CCN1C)Oc1c(OC(=O)c3ccccc3)c(OC)c(Cl)c3c1[C@H](C2)N(C)CC3 [Compound 4b, 7-O-Benzoyl-5,14-dichloro-fangchinoline] | 3.85 | 3.54 | 7.22 | 5.11 | 3.16 | 
COc1cc([N+](=O)[O-])c2cc1Oc1ccc(cc1)C[C@H]1c3cc(c(OC)cc3CCN1C)Oc1c(OC(=O)c3ccccc3)c(OC)cc3c1[C@H](C2)N(C)CC3 [Compound 4g, 7-O-Benzoyl-14-nitro-fangchinoline] | 2.03 | 1.07 | 2.92 | 1.98 | 2.09 | fold lower toxicity on HL7702 than inhibition on cancer cell lines [7]: ~5 fold; IC50 at 2 days [6]: 5 µM; full-length PARP level (Western blot) (PARP): down-regulation of full-length PARP; times more active than first stage derivative 3i on WM9 ([2]; WM9 IC50 ratio versus 3i): 2.5 times; times more active than fangchinoline on WM9 ([2]; WM9 IC50 ratio versus fangchinoline): 12.2 times; times more active than vincristine on WM9 ([2]; WM9 IC50 ratio versus vincristine): 9.8 times; Bcl-xl expression (Western blot) (Bcl-xl): inhibited; WM9 cells in the early apoptosis state (WM9 cells; control 0.0%): 8.8%; WM9 cells in the late apoptosis state (WM9 cells; control 0.3%): 15.8%; Survivin expression (Western blot) (Survivin): inhibited; Bcl-2 expression (Western blot) (Bcl-2): inhibited; Pro-Caspase-3 / Cleaved-Caspase-3 (Western blot) (Caspase-3): activation of executioner from Pro-Caspase-3 to Cleaved-Caspase-3
COc1ccc2cc1Oc1ccc(cc1)C[C@H]1c3cc(c(OC)cc3CCN1C)Oc1c(O)c(OC)cc3c1[C@H](C2)N(C)CC3 [Fangchinoline] |  |  |  |  |  | IC50 [8]: ~5 µM; IC50 ([1]; PC-3, 48 h): 11.1 µM; IC50 ([2]; WM9, 48 h): 13.1 µM; IC50 [9]: ~5 µM; IC50 ([3]; MDA-MB-231, 48 h): 12.3 µM; IC50 ([4]; 48 h): 8.95 µM; IC50 ([5]; K562, 48 h): 10.3 µM
CC[C@]1(O)C[C@H]2CN(CCc3c([nH]c4ccccc34)[C@@](C(=O)OC)(c3cc4c(cc3OC)N(C=O)[C@H]3[C@@](O)(C(=O)OC)[C@H](OC(C)=O)[C@]5(CC)C=CCN6CC[C@]43[C@@H]65)C2)C1 [Vincristine, reference compound] | 5.36 | 10.6 | 13.1 | 6.38 | 5.62 | 
